In ChEMBL document CHEMBL2046411, “Virtual Screening and X-ray Crystallography for Human Kallikrein 6 Inhibitors with an Amidinothiophene P1 Group” (ACS Med Chem Lett, 2012) one finds IC50 data, which are given here for 1 molecule.

The term IC50 denotes the point on the concentration scale where inhibition reaches its midpoint. Low readings indicate greater potency, high ones weaker potency.

The test has as its target Kallikrein-6 (Homo sapiens, UniProt Q92876). Nature of the test: Inhibition of N-terminus His6-tagged human kallikrein 6 expressed in baculovirus infected insect sf9 cells using Boc-Phe-Ser-Arg-AMC as substrate by fluorescence analysis.

Take `COc1ccc2ccc(S(=O)(=O)N(Cc3ccccc3)[C@H]3CCN(Cc4ccc(C(=N)N)s4)C3=O)cc2c1`: the half-maximal inhibitory concentration (IC50) is 1500 nM.
